Like-named read-outs stand apart in the source and are kept apart here. Starred links: 1 amine or outer side, 2 acyl side, 3 side chain; linkers in the order of their positions; H or OH if unused. Positions of bridges follow the written chain, without caps; N, C: chain ends. Residues, ends and D or L forms follow the SMILES beside them. Groups on a side chain read outwards from the residue. *: point of attachment. C20 diacid = O=C(O)CCCCCCCCCCCCCCCCCCC(=O)*; C18 diacid = O=C(O)CCCCCCCCCCCCCCCCC(=O)*; γGlu = O=C(O)[C@H](CCC(=O)[*:2])N[*:1]; AEEA = NCCOCCOCC(=O)O
How the values were obtained:
[1] = target: T1, human amylin 3(a) receptor (human calcitonin receptor + RAMP-3) (Homo sapiens, UniProt O60896+P30988); assay: Assay (II)a functional assay, human amylin receptor (CRE luciferase reporter in BHK cells); format: cell-based
T1 construct: expressed in transfected cells; CRE-luciferase reporter
T1 sequence (P30988 25-474): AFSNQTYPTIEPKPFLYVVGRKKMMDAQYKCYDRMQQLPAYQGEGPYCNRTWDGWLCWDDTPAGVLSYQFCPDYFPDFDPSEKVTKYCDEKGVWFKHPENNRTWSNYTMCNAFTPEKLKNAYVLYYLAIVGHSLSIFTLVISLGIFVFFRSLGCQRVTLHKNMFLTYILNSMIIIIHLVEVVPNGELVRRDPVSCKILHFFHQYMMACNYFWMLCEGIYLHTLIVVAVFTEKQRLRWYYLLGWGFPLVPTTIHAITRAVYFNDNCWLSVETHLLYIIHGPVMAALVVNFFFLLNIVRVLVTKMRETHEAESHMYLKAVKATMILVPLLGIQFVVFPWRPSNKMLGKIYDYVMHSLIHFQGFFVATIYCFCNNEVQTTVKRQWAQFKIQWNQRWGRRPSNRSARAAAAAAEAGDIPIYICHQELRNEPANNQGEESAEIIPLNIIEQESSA
T1 sequence (O60896 24-148 partner): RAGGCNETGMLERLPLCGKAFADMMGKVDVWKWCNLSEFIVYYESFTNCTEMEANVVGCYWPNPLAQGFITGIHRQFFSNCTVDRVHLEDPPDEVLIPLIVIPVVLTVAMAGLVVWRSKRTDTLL
Description: (§1) 1. Luciferase Assay Outline
(§2) Activation of calcitonin and amylin (coexpression of calcitonin receptor and receptor activity modifying proteins (RAMP)) receptors lead to increased intracellular concentrations of cAMP. Consequently, transcription is activated by promoters containing multiple copies of the cAMP response element (CRE). It is thus possible to measure amylin activity by the use of a CRE luciferase reporter gene introduced into BHK cells also expressing calcitonin or amylin receptors.
(§3) A BHK570 cell line was stably transfected with the human calcitonin receptor and a CRE-responsive luciferase reporter gene. The cell line was further transfected with RAMP-3, using standard methods. This turns the calcitonin receptor into an amylin 3(a) receptor. Methotrexate, Neomycin, and Hygromycin are selection markers for luciferase, the calcitonin receptor, and RAMP-3, respectively.
(§4) To perform activity assays, BHK calcitonin (a) receptor- or amylin 3(a)-receptor/CRE-luc cells were seeded in white 96 well culture plates at a density of about 20.000 cells/well. […] After incubation overnight at 37° C. and 5% CO2, the growth medium was replaced by 50 μl/well assay medium (DMEM (without phenol red), Glutamax™, 10% FBS, and 10 mM Hepes, pH 7.4). Further, 50 μl/well of standard or sample in assay buffer were added. After 3 hours incubation at 37° C. and 5% CO2, the assay medium with standard or sample were removed and replaced by 100 μl/well PBS. Further, 100 μl/well LucLite™ was added. The plates were sealed and incubated at room temperature for 30 minutes. Finally, luminescence was measured on a TopCounter (Packard) in SPC (single photon counting) mode.

[2] = target: T2, human calcitonin receptor (Homo sapiens, UniProt P30988); assay: Assay (II)a functional assay, human calcitonin receptor (CRE luciferase reporter in BHK cells); format: cell-based
T2 construct: expressed in transfected cells; CRE-luciferase reporter
T2 sequence (P30988 25-474): T1 sequence (P30988 25-474)
Description: as §1, §2, §3, §4

[3] = Assay (IV) determination of solubility; format: physicochemical
Procedure: Assay (IV)—Determination of Solubility
The polypeptide was dissolved in water at −500 nmol/ml and mixed 1:1 with a series of buffers (100 mM glycylglycine pH 3.0, 100 mM glycylglycine pH 4.0, 100 mM glycylglycine pH 5.0, 100 mM bistrispropane pH 6.0, 100 mM bistrispropane pH 6.5, 100 mM bistrispropane pH 7.0, 100 mM bistrispropane pH 7.5, 100 mM bistrispropane pH 8.0). After 18 hours at room temperature the samples were centrifuged and the polypeptide concentration determined by HPLC.

[4] = Table 7, human calcitonin (CTa) receptor
[5] = Table 11, human amylin receptor
[6] = Table 11, human calcitonin receptor, read-out: CTa receptor human EC50

| EC50 ([1]; Table 6, human amylin receptor) [nM] | EC50 [2, 4] [nM] | EC50 [1, 5] [nM] | EC50 [2, 6] [nM] | EC50 [1] [nM] | EC50 ([1]; Table 4) [nM] | EC50 ([1]; Table 7, human amylin receptor) [nM] | solubility at 18 h ([3]; bistrispropane buffer, pH 6.5, read-out: Solubility) [µM] | solubility at 18 h ([3]; bistrispropane buffer, pH 7.5, read-out: Solubility) [µM] | solubility at 18 h ([3]; bistrispropane buffer, pH 6.0, read-out: Solubility) [µM] | solubility at 18 h ([3]; bistrispropane buffer, pH 7.0, read-out: Solubility pH 7.0) [µM] | solubility at 18 h ([3]; bistrispropane buffer, pH 8.0, read-out: Solubility) [µM] | solubility at 18 h ([3]; glycylglycine buffer, pH 3.0, read-out: Solubility) [µM] | solubility at 18 h ([3]; glycylglycine buffer, pH 4.0, read-out: Solubility pH 4.0) [µM] | solubility at 18 h ([3]; glycylglycine buffer, pH 5.0, read-out: Solubility) [µM] | solubility at 18 h ([3]; pH 4.0, read-out: Solubility) [µM] | solubility at 18 h ([3]; pH 7.0, read-out: Solubility) [µM] | Compound |
| --- | --- | --- | --- | --- | --- | --- | --- | --- | --- | --- | --- | --- | --- | --- | --- | --- | --- |
| 0.385 | 0.492 |  |  |  |  |  |  |  |  |  |  |  |  |  |  |  | CC[C@H](C)[C@H](NC(=O)[C@@H]1CCCN1C(=O)CNC(=O)[C@H](CC(C)C)NC(=O)[C@H](CCC(=O)O)NC(=O)[C@H](CCC(N)=O)NC(=O)[C@@H](NC(=O)[C@H](C)NC(=O)[C@H](CCCNC(=N)N)NC(=O)[C@H](Cc1c[nH]cn1)NC(=O)[C@H](CC(C)C)NC(=O)[C@H](Cc1ccccc1)NC(=O)[C@H](CCC(=O)O)NC(=O)[C@H](C)NC(=O)[C@H](CC(C)C)NC(=O)[C@H](CCCNC(=N)N)NC(=O)[C@H](CCC(N)=O)NC(=O)[C@@H](NC(=O)[C@H](C)NC(=O)[C@@H]1CSSC[C@H](NC(=O)[C@H](Cc2c[nH]cn2)NC(=O)COCCOCCNC(=O)COCCOCCNC(=O)CC[C@H](NC(=O)CCCCCCCCCCCCCCCCCCC(=O)O)C(=O)O)C(=O)N[C@@H](CC(N)=O)C(=O)N[C@@H]([C@@H](C)O)C(=O)N[C@@H](C)C(=O)N[C@@H]([C@@H](C)O)C(=O)N1)[C@@H](C)O)[C@@H](C)O)C(=O)N[C@@H](CC(C)C)C(=O)N1CCC[C@H]1C(=O)N1CCC[C@H]1C(=O)N[C@H](C(=O)N[C@@H](CC(N)=O)C(=O)N[C@H](C(=O)NCC(=O)N[C@@H](CO)C(=O)N[C@@H](CC(N)=O)C(=O)N[C@H](C(=O)N[C@@H](Cc1ccc(O)cc1)C(N)=O)[C@@H](C)O)C(C)C)[C@@H](C)O [Example 23] ({C20 diacid-γGlu-AEEA-AEEA}-HCNTATCATQRLAEFLHRATQELGPILPPTNVGSNTY-NH2; disulfide 2-7) |
|  |  | 0.076 | 0.101 |  |  |  |  |  |  |  |  |  |  |  |  |  | CC[C@H](C)[C@H](NC(=O)[C@H](CCCCNC(=O)COCCOCCNC(=O)COCCOCCNC(=O)CC[C@H](NC(=O)CCCCCCCCCCCCCCCCC(=O)O)C(=O)O)NC(=O)CNC(=O)[C@H](Cc1ccccc1)NC(=O)[C@H](CC(N)=O)NC(=O)[C@H](CC(N)=O)NC(=O)[C@H](CO)NC(=O)[C@H](CO)NC(=O)[C@H](Cc1c[nH]cn1)NC(=O)[C@@H](NC(=O)[C@H](CC(C)C)NC(=O)[C@H](Cc1ccccc1)NC(=O)[C@H](CCC(=O)O)NC(=O)[C@H](C)NC(=O)[C@H](CC(C)C)NC(=O)[C@H](CCCNC(=N)N)NC(=O)[C@H](CCC(N)=O)NC(=O)[C@@H](NC(=O)[C@H](C)NC(=O)[C@@H]1CSSC[C@H](NC(=O)[C@@H](N)CCCCN)C(=O)N[C@@H](CC(N)=O)C(=O)N[C@@H]([C@@H](C)O)C(=O)N[C@@H](C)C(=O)N[C@@H]([C@@H](C)O)C(=O)N1)[C@@H](C)O)C(C)C)C(=O)N[C@@H](CC(C)C)C(=O)N1CCC[C@H]1C(=O)N1CCC[C@H]1C(=O)N[C@H](C(=O)N[C@@H](CC(N)=O)C(=O)N[C@H](C(=O)NCC(=O)N[C@@H](CO)C(=O)N[C@@H](CC(N)=O)C(=O)N[C@H](C(=O)N[C@@H](Cc1ccc(O)cc1)C(N)=O)[C@@H](C)O)C(C)C)[C@@H](C)O [Example 126] (H-KCNTATCATQRLAEFLVHSSNNFGK([AEEA-AEEA-γGlu-C18 diacid])ILPPTNVGSNTY-NH2; disulfide 2-7 (inferred); N-terminus and C-terminus assumed) |
| 0.209 | 0.0675 | 0.209 | 0.0675 | 0.209 | 0.209 | 0.209 | > 200 | > 200 | > 200 | > 200 | > 200 | > 200 | > 200 | > 200 | >200 | >200 | CC(C)C[C@H](NC(=O)[C@H](CCCNC(=N)N)NC(=O)[C@H](CCC(N)=O)NC(=O)[C@@H](NC(=O)[C@H](C)NC(=O)[C@@H]1CSSC[C@H](NC(=O)[C@@H](N)CCCCNC(=O)CC[C@H](NC(=O)CCCCCCCCCCCCCCCCCCC(=O)O)C(=O)O)C(=O)N[C@@H](CC(N)=O)C(=O)N[C@@H]([C@@H](C)O)C(=O)N[C@@H](C)C(=O)N[C@@H]([C@@H](C)O)C(=O)N1)[C@@H](C)O)C(=O)N[C@@H](C)C(=O)N[C@@H](CCC(=O)O)C(=O)N[C@@H](Cc1ccccc1)C(=O)N[C@@H](CC(C)C)C(=O)N[C@@H](Cc1c[nH]cn1)C(=O)N[C@@H](Cc1c[nH]cn1)C(=O)N[C@@H](CO)C(=O)N[C@@H](CO)C(=O)N[C@@H](CCC(N)=O)C(=O)N[C@@H](CC(N)=O)C(=O)N[C@@H](Cc1ccccc1)C(=O)NCC(=O)N[C@@H](C)C(=O)N1CCC[C@H]1C(=O)N[C@@H](CC(C)C)C(=O)N[C@@H](CO)C(=O)N[C@@H](CO)C(=O)N[C@H](C(=O)N[C@@H](CC(N)=O)C(=O)N[C@H](C(=O)NCC(=O)N[C@@H](CO)C(=O)N[C@@H](CC(N)=O)C(=O)N[C@H](C(=O)N1CCC[C@H]1C(N)=O)[C@@H](C)O)C(C)C)[C@@H](C)O [Example 151, N-epsilon1-[(S)-4-Carboxy-4-(19-carboxynonadecanoylamino)butyryl]-[Glu14,His17,Gln21,Ala25,Pro26,Ser28,Ser29,Pro37]-pramlintide] (H-K([γGlu-C20 diacid])CNTATCATQRLAEFLHHSSQNFGAPLSSTNVGSNTP-NH2; disulfide 2-7 (inferred); N-terminus assumed) |
